# From patent US8071314B2 (priority 2001, dated 2011)
# Several values for one entry are separate records, joined by “and”; a condition that tells them apart may be missing. Equal entries are not always repeated. Where two headings read alike, the source gives them in different places.
# System: N-methyl-D-aspartate (NMDA) receptor
# Format: cell-based, mouse
smiles,measurement,setting,value
"NC(CCCP(=O)(O)O)C(=O)O [D-APV, 2-amino-5-phosphonovalerate]",LTP in the presence of the NMDA antagonist,"50 μM D-APV, all genotypes, hippocampal slices, 100 Hz tetanus, 100 μM picrotoxin in bath",completely abolished
same,"Posttetanus fEPSP slopes, averaged over 180 min (relative to baseline)",n=3,107±14% and 97±9%
same,"Posttetanus fEPSP slopes, averaged over 180 min (relative to baseline)",n=5,106±10%
